Reference: patent US7728146B2, “Enzyme inhibitors” (Probiodrug AG, priority 2006, dated 2010)
pIC50, pKi: −log10 of the molar value. “Also recorded” adds a separate entry of the source. Read-outs that look alike come from different tables or passages of the source.

How the values were obtained:
[1] = target: T1, DP IV (Homo sapiens, UniProt P27487); assay: DP IV inhibition IC50, parallel-synthesis compounds tested directly following synthesis (without purification); assay type: biochemical; set-up: IC50 DP4; other: tested directly following parallel synthesis, without purification; compounds of formula (Ib) from parallel synthesis, tested directly following synthesis
Summary of the method: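 IC50 came from a 4-parameter fit of residual activity (linear 405 nm slopes for pNA release over ~18 min, relative to solvent-only wells). Gly-Pro-pNA was the substrate, cleaved by porcine kidney or recombinant human DP IV at room temperature in HEPES with 5% DMSO; duplicate 1:2 series started at 100 μM final.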

[2] = tested on: liver cell carcinoma cell line Hep-G2; assay: Cytotoxicity screening and LD50 determination on Hep-G2 (LDH, CytoTox-One); assay type: cell-based; settings: for cytotoxic effects (summary in words) / Cytotox 100 μM (%) HEPG2 / Viability 100 μM (%) HEP-G2 / Observed cytotox: 100 μM; for cytotoxic effects (summary in words): Hep-G2; for Cytotox 100 μM (%) HEPG2 / Viability 100 μM (%) HEP-G2: 24 h; for Cytotox 100 μM (%) HEPG2: LDH activity in cell culture media, lysed untreated cells = 100%; for Viability 100 μM (%) HEP-G2: LDH of lysed cells, untreated control = 100%; for Observed cytotox: Hep-G2, observation of the cells
Description: Cytotoxicity of the compounds may be screened using the liver cell carcinoma cell line Hep-G2.
(§1) After 24 h of cultivation in a 96 well plate (50 000 cells/well) compounds (dissolved in DMSO) are added and cytotoxicity and vitality of the cells are analysed after another 24 h of cultivation using the CytoTox-One Homogenoeous membrane toxicity assay (Promega).
Three concentrations (100 μM, 2 μM, 40 nM) of each compound are analysed in triplicates. The final DMSO concentration was 1%.
(§2) For cytotoxicity the LDH activity in the cell culture media after 24 h of incubation are analysed. The untreated control is set to 0% cytotoxicity. For the 100% value LDH activity of lysed untreated cells are analysed.
(§3) For viability cell culture media are removed from the cells and all cells are lysed using the lysis buffer. LDH activity is determined and untreated control is set to 100% viability.
(§4) For determination of LD50 the liver carcinoma cell line HEP-G2 and the neuroblastoma cell line SY5Y may be used. The effect of 8 serial dilutions of the compounds (highest concentration 1 mM) is investigated as described above.
The cytotoxicity of certain example compounds (in each case prepared by preparative synthesis) was screened using Hep-G2 cells. Compounds were tested in concentrations of 100 μM, 2 μM and 40 nM.

[3] = target: DPII (Homo sapiens, UniProt Q9UHL4); assay: DPII assay; assay type: biochemical; settings: for Selectivity DPII(IC50)/DPIV(Ki): ratio IC50 DPII / Ki DP IV
Description: (§5) Determination of IC50 values for DPII and DP9 are done similarly as described for DP IV.
For DPII instead of the HEPES buffer a 0.2 M sodium acetate buffer pH 5.5 is used. As substrate Gly-Pro-AMC is used in a final concentration of 1 mM.

[4] = target: T1, DP IV; assay: Ki and inhibition type, DP IV; assay type: biochemical; settings: compounds obtained by preparative synthesis
Description: Measurement of DP IV activities for Ki determination is carried out as described for IC50. For Ki determination samples were analysed in triplicates. 7 serial dilutions of the inhibitor (range calculated from the IC50 determination) in water are analyzed with 4 serial dilutions of the substrate.
Data are analysed by non-linear regression to the inhibitor equations using Graphit software. Ki-value and inhibition type are determined using the inhibitor equation (competitive, partiell competitive, non-competitive) which gives the best fitting results. […]

[5] = target: dipeptidyl peptidase (DP IV) (UniProt P27487); assay: Determination of IC50 against DP IV (hydrolysis of Gly-Pro-pNA); assay type: biochemical, porcine kidney or recombinant human; settings: compounds obtained by preparative synthesis
Description: Determination of IC50 Against DP IV
Substances are screened for inhibition of dipeptidyl peptidase (DP IV) by their ability to inhibit the hydrolysis of the DP IV specific substrate Glycyl-Prolyl-4-Nitroanilide (Gly-Pro-pNA). All compounds are diluted in DMSO and IC50 will be determined with 11 serial dilutions (1:2) starting with an final concentration of 100 μM. The final DMSO concentration in the assay is 5% (v/v). The method was automated using a Tecan Genesis Freedom liquid handler and a Genius Pro (Tecan) microplate reader.
A stock solution of 0.102 M HEPES is prepared. Ionic strength (I=0.32) is adjusted by KCl and pH (pH 7.6) by KOH.
2.16 mM solution of Gly-Pro-pNA in deionized water is prepared.
All samples are dissolved in DMSO preparing a 10 mM stock solution.
DP IV from porcine kidney (pDP IV) or recombinant human DP IV (rhDP IV) is diluted in HEPES buffer to a final activity of approximately 40-50 μU*ml^−1. The DP IV is stored in a cooling rack (4° C.) on the liquid handler.
The assay may becarried out at room temperature using Freedom liquid handler connected with a Genios Pro microplate reader. Each sample is measured in duplicate. Each sample stock solution is prediluted with DMSO in a ratio of 1:5 in a polypropylen 96-well plate. From this predilution 10 serial (1:2) dilutions in DMSO are prepared. 13.5 μl of the 11 DMSO dilutions and DMSO alone are transferred to the measurement microplate (duplicates) and 86.5 μl water, 100 μl HEPES buffer and 50 μl substrate solution are added to each well. The enzymatic reaction is started by addition of 20 μl enzyme solution to each well, and then the microplate is immediately transferred to the microplate reader.
After short mixing (20 s) the release of 4-Nitroanilin (pNA) is monitored at 405 nm for 30 cycles (approx. 18 min).
Post assay calculations are done by the Magellan (Tecan) and Graphit Software. The linear slopes are calculated for each well and averaged for the duplicates. The residue activities are calculated in relation to a sample containing only solvent instead of inhibitor and expressed in %. Residue activities are plotted against the log of inhibitor concentrations and IC50 is calculated by an 4-parameter fitting ranging from 0 to 100%.

[6] = target: DP9 (Homo sapiens, UniProt Q86TI2); assay: DP9 assay; assay type: biochemical; settings: for pIC50: Gly Pro-AMC 0.25 mM; for Selectivity DP9(IC50)/DPIV(Ki): ratio IC50 DP9 / Ki DP IV
Description: as §5
For DP9 Gly Pro-AMC is used as substrate in a final concentration of 0.25 mM.

[7] = tested on: neuroblastoma cell line SY5Y; assay: LD50 determination on SY5Y (LDH); assay type: cell-based; settings: 8 serial dilutions, highest concentration 1 mM
Description: as §1, §2, §3, §4

[8] = DP IV inhibition, compounds of formula (Ib) from parallel synthesis, tested directly following synthesis (without purification), read-out: IC50
[9] = sodium acetate buffer pH 5.5, Gly-Pro-AMC 1 mM
[10] = 8 serial dilutions, highest concentration 1 mM

Sequence of DP9 (Q86TI2 whole entry, species assumed): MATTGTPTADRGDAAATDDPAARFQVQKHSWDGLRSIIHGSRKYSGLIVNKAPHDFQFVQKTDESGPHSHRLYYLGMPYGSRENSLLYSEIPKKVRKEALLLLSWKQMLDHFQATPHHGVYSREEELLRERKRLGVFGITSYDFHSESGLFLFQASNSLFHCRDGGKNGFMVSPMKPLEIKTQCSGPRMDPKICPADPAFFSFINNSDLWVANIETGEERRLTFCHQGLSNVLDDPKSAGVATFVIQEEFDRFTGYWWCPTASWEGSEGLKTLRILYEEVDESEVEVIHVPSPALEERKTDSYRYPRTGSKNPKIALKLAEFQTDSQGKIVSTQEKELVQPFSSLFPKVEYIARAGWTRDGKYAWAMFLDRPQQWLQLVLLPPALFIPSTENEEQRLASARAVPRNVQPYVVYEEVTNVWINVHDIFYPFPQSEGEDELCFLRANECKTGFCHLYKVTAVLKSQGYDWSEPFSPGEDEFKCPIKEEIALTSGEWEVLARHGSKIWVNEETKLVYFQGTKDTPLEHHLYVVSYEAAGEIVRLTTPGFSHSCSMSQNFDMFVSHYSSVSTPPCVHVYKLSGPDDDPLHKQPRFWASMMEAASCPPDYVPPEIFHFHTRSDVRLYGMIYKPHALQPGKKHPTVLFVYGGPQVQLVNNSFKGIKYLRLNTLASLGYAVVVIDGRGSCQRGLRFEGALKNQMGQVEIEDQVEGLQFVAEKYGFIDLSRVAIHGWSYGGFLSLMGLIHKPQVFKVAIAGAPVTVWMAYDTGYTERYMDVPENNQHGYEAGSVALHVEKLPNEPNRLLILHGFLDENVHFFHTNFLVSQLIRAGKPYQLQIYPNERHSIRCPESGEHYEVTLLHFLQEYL
T1 sequence (P27487 whole entry): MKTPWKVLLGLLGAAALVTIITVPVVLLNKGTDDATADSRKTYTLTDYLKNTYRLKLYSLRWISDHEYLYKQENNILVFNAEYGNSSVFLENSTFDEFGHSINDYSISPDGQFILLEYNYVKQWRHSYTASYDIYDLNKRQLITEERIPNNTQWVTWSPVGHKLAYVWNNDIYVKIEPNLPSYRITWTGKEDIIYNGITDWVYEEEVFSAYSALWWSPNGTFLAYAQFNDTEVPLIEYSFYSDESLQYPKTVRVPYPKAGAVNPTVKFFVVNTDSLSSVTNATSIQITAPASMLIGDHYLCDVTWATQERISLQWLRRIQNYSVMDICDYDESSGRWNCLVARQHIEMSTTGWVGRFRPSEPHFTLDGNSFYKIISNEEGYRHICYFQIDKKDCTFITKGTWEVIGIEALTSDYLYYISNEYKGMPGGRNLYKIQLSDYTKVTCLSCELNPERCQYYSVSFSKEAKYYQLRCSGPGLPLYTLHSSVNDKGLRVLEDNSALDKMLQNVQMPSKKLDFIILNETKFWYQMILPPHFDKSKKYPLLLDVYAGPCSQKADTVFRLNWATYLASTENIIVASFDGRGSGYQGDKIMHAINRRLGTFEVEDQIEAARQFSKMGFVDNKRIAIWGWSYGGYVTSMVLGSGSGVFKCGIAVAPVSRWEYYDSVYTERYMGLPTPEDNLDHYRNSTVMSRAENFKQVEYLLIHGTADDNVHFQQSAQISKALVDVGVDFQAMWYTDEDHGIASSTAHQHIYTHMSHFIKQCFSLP

Compound	pIC50 [1, 8]	cytotoxic effects (summary in words) [2]	Selectivity DPII(IC50)/DPIV(Ki) [3]	pIC50 [3, 9]	pKi [4]	Cytotox 100 μM (%) HEPG2 [2] [%]	Viability 100 μM (%) HEP-G2 [2] [%]	pIC50 [5]	pIC50 [6]	Selectivity DP9(IC50)/DPIV(Ki) [6]	further results
NCc1c(-c2ccc(Cl)cc2Cl)ncn1CCc1c[nH]c2ccccc12 [Example 1b, C-{5-(2,4-Dichloro-phenyl)-3-[2-(1H-indol-3-yl)-ethyl]-3H-imidazol-4-yl}-methylamine]	5.43	Strong cytotoxic effects	–	–	–	–	–	–	–	–	–
CC(N)c1c(-c2ccc(Cl)cc2Cl)ncn1CCc1ccccc1 (stereo not drawn) [Example 2b, 1-[5-(2,4-Dichloro-phenyl)-3-phenethyl-3H-imidazol-4-yl]-ethylamine]	4.49	No cytotoxic effects	–	–	–	–	–	–	–	–	–
CC(C)CCn1cnc(-c2ccc(Cl)cc2Cl)c1CN [Example 7b, C-[5-(2,4-Dichloro-phenyl)-3-(3-methyl-butyl)-3H-imidazol-4-yl]-methylamine]	5.09	Strong cytotoxic effects; also recorded: strongest cytotoxicity	–	–	–	–	–	–	–	–	–
COc1ccc(Cn2cnc(-c3ccc(Cl)cc3Cl)c2CN)c(OC)c1 [Example 8b, C-[5-(2,4-Dichloro-phenyl)-3-(2,4-dimethoxy-benzyl)-3H-imidazol-4-yl]-methylamine]	4.90	No cytotoxic effects	–	–	–	–	–	–	–	–	–
CC(C)(C)Cn1cnc(-c2ccc(Cl)cc2Cl)c1CN [Example 11b, C-[5-(2,4-dichloro-phenyl)-3-(2,2-dimethyl-propyl)-3H-imidazol-4-yl]-methylamine]	5.19	No cytotoxic effects	1,457	4.08	7.24	4.6	113.1	5.59	–	–	–
CCCCCn1cnc(-c2ccc(Cl)cc2Cl)c1CN [Example 12b, C-[5-(2,4-Dichloro-phenyl)-3-pentyl-3H-imidazol-4-yl]-methylamine]	5.19	No cytotoxic effects	–	–	–	–	–	–	–	–	–
NCc1c(-c2ccc(Cl)cc2Cl)ncn1CC12CC3CC(CC(C3)C1)C2 [Example 14b, C-[3-Adamantan-1-ylmethyl-5-(2,4-dichloro-phenyl)-3H-imidazol-4-yl]-methylamine]	4.72	No cytotoxic effects	–	–	–	–	–	–	–	–	–
Cc1ccccc1Cn1cnc(-c2ccc(Cl)cc2Cl)c1C(C)N (stereo not drawn) [Example 15b, 1-[5-(2,4-Dichloro-phenyl)-3-(2-methyl-benzyl)-3H-imidazol-4-yl]-ethylamine]	4.72	No cytotoxic effects	–	–	–	–	–	–	–	–	–
NCc1c(-c2ccc(Cl)cc2Cl)ncn1CCc1ccccc1Cl [Example 21b, C-[3-[2-(2-chloro-phenyl)-ethyl]-5-(2,4-dichloro-phenyl)-3H-imidazol-4-yl]-methylamine]	5.72	–	157	5.34	7.53	97.1	9.8	6.29	5.89	44	pKi [3]: 5.50; Observed cytotox [2]: 100% lysis; pKi [6]: 6.03
CC(C)(C)CCn1cnc(-c2ccc(Cl)cc2Cl)c1CN [Example 23b, C-[5-(2,4-dichloro-phenyl)-3-(3,3-dimethyl-butyl)-3H-imidazol-4-yl]-methylamine]	5.09	–	–	–	7.63	56.8	98.6	6.04	4.25	2,377	Observed cytotox [2]: 50% lysis, 100%
NCc1c(-c2ccc(Cl)cc2Cl)ncn1CCCCCO [Example 38b, 5-[5-aminomethyl-4-(2,4-dichloro-phenyl)-imidazol-1-yl]-pentan-1-ol]	5.72	–	1,474	4.22	7.39	0	106.7	6.07	4.33	1,131	–
NCc1c(-c2ccc(F)cc2F)ncn1Cc1cccnc1 [Example 89a, C-[5-(2,4-Difluoro-phenyl)-3-pyri-din-3-yl-methyl-3H-imid-azol-4-yl]-methyl-amine]	–	–	–	–	–	–	–	–	–	–	pIC50 ([1]; tested directly following parallel synthesis, without purification, read-out: IC50 DP4): 4.65
NCc1c(-c2ccc(Cl)cc2Cl)ncn1Cc1ccc(F)c(F)c1 [Example 92b, C-[5-(2,4-dichloro-phenyl)-3-(3,4-difluoro-benzyl)-3H-imidazol-4-yl]-methylamine]	6.00	–	–	–	–	–	–	–	–	–	–
NCc1c(-c2ccc(Cl)cc2Cl)ncn1CCCn1ccnc1 [Example 104b, C-[5-(2,4-dichloro-phenyl)-3-(3-imidazol-1-yl-propyl)-3H-imidazol-4-yl]-methylamine]	5.26	–	9,172	–	7.52	2.9	104.1	6.39	4.76	579	pIC50 ([3]; values >1e−4 are extrapolated values): 3.56
NCc1c(-c2ccc(Cl)cc2Cl)ncn1Cc1ccc2c(c1)OCO2 [Example 125b, C-[3-benzo[1,3]dioxol-5-ylmethyl-5-(2,4-dichloro-phenyl)-3H-imidazol-4-yl]-methylamine]	–	–	471	4.75	7.42	10.6	88.9	6.43	4.13	1,966	–
NCc1c(-c2ccc(Cl)cc2Cl)ncn1Cc1ccccc1OC(F)(F)F [Example 129b, C-[5-(2,4-dichloro-phenyl)-3-(2-trifluoromethoxy-benzyl)-3H-imidazol-4-yl]-methylamine]	–	–	237	5.81	8.18	–	–	7.15	4.27	8,135	pKi [3]: 5.35; LD50 Viability HEP-G2 [2, 10]: 0.15 mM; LD50 cytotox HEP-G2 [2, 10]: 0.16 mM; LD50 Viability SY5Y [7]: 0.13 mM; LD50 cytotox SY5Y [7]: 0.21 mM
